Earlier results, collected in US8933112B2, “Topical liquid to ameliorate pain and promote healing of burn-injured skin” (Memphaceuticals, LLC, priority 2012, dated 2015).

Assays:
[1] = tested on: human T lymphocytes; conditions: by blocking Ca2+-sensitive K+ channels
[2] = target: T1, 6-phosphofructo-1-kinase (PFK) (Oryctolagus cuniculus, UniProt P00511); conditions: independent of anti-calmodulin activity
T1 sequence (P00511 2-780 limits assumed): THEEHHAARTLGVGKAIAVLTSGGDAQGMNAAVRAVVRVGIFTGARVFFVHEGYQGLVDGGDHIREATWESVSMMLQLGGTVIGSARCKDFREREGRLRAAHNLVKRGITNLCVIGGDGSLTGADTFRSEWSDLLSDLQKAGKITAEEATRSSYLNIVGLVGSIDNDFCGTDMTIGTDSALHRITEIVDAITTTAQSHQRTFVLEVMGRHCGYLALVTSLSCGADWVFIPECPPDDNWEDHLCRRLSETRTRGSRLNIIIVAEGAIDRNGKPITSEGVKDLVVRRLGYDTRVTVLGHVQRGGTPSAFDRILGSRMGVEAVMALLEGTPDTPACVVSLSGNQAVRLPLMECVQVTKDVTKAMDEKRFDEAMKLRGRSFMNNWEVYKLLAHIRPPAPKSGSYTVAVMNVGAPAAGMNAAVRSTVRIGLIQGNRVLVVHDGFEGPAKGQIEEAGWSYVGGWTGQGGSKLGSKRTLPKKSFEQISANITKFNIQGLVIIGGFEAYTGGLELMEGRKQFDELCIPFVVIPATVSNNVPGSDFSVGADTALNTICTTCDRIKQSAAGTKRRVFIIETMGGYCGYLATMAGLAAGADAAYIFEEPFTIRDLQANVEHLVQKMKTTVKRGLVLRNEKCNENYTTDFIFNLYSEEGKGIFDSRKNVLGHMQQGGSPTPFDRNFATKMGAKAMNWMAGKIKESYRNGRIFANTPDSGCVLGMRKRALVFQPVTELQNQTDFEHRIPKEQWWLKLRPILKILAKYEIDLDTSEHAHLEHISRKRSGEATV

[3] = tested on: Ca^2+-dependent K^+ channels of human red blood cells, rat thymocytes, and Ehrlich ascites tumor cells; conditions: among tioconazole, miconazole, econazole, clotrimazole
[4] = target: T2, nitric-oxide synthase in bovine brain (Bos taurus, UniProt A0A3Q1M6M2)
T2 construct: nitric-oxide synthase in bovine brain; host or cells: bovine brain

[5] = tested on: Lewis lung carcinoma cells and CT-26 colon adenocarcinoma cells

T2 sequence (A0A3Q1M6M2 1-1468): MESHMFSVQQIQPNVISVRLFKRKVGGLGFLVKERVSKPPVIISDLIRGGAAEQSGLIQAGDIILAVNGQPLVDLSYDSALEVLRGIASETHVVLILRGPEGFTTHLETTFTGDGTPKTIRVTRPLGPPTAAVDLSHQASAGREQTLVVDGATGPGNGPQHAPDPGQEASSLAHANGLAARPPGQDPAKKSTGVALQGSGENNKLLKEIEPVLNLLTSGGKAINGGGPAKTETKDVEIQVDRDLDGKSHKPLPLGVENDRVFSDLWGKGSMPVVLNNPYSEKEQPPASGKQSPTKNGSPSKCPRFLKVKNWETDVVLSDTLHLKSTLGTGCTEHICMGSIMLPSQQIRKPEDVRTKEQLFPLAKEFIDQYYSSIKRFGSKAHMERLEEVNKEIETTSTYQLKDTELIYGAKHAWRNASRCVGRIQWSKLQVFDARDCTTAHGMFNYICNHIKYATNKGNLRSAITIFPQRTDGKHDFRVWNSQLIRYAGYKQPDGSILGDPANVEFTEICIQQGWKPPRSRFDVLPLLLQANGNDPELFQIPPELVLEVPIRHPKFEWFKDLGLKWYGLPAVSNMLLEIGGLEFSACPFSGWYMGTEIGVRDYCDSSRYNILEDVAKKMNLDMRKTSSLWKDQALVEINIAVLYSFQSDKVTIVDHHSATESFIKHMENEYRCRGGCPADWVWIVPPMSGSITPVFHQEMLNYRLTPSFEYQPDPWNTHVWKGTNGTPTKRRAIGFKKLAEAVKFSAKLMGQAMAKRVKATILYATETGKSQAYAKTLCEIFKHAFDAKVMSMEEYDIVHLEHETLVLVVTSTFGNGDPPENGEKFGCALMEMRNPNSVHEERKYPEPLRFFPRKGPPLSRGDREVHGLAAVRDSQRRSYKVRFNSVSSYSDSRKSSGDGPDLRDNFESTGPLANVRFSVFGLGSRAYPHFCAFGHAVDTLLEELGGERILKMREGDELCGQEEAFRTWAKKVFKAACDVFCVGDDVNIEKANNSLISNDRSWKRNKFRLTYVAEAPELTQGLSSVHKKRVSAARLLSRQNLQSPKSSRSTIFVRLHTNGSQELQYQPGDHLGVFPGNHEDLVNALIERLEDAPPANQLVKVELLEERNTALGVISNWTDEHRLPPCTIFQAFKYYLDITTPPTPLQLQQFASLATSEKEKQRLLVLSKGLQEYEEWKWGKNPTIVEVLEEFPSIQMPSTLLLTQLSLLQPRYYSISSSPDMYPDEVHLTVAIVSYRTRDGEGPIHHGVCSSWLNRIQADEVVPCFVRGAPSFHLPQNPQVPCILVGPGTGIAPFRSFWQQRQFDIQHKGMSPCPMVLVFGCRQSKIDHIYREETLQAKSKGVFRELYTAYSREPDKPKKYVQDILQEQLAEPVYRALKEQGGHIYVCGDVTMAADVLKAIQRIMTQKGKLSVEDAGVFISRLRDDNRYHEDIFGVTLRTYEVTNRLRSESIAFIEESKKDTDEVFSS

SMILES: Clc1ccccc1C(c1ccccc1)(c1ccccc1)n1ccnc1 [clotrimazole, 1-(o-chloro-α,α-diphenylbenzyl)imidazole]
- activation of human T lymphocytes [1]: inhibits activation
- inhibition of PFK [2]: directly inhibits
- inhibition of Ca2+-dependent K+ channels [3]: most potent inhibitor
- citrulline formation by nitric-oxide synthase ([4]; bovine brain): inhibited citrulline formation
- cytochrome-c reductase activity of nitric-oxide synthase ([4]; calmodulin-dependent fashion): inhibited the cytochrome-c reductase activity
- levels of glucose 1,6-bisphosphate, fructose 1,6-bisphosphate, ATP, and cell viability [5]: significant reduction
